Results taken from patent EP0846114B1, “3-PYRIDYLOXYALKYL HETEROCYCLIC ETHER COMPOUNDS USEFUL IN CONTROLLING CHEMICAL SYNAPTIC TRANSMISSION” (priority 1995, dated 1996).
Where a name gives a salt, the structure may show the parent alone. Read-outs that look alike come from different tables or passages of the source.

Legend:
[1] = tested on: Neuronal Nicotinic Cholinergic Channels in IMR-32 Cells; test: 86Rb+ efflux in IMR-32 cells (Protocol B); details: for IMR-32 maximal response: percent relative to the response elicited by 100 µM (S)-nicotine; for EC50: read-out: IMR-32 EC50, activation of 86Rb+ efflux, IMR-32 human neuroblastoma cells
Experimental: For the purpose of directly evaluating the ability of test compounds to functionally activate or inhibit certain subtypes of neuronal nicotinic cholinergic channels, an assay to determine ^86Rb^+ efflux in IMR-32 cells was employed (Protocol B below).
Experimental cells were seeded at a density of 500,000 cells/mL into a 24-well tissue culture dish. Plated cells were allowed to proliferate for at least 48 hours before loading with 2 µCi/mL of ^86Rb^+ (35 Ci/mmol) overnight at 37°C.

[2] = target: T1, neuronal nicotinic cholinergic channel receptors (Rattus norvegicus, UniProt P09483+P12390); test: [3H]-cytisine radioligand displacement binding (Protocol A)
T1 construct: crude synaptic membrane preparations from whole rat brain; from tissue; host or cells: whole rat brain, crude synaptic membranes
Experimental: Binding of [^3H]-cytisine ([^3H]-CYT) to nicotinic receptors was accomplished using crude synaptic membrane preparations from whole rat brain (Pabreza et al., Molecular Pharmacol., 1990, 39:9). Washed membranes were stored at -80°C prior to use. Frozen aliquots were slowly thawed and resuspended in 20 volumes of buffer (containing: 120 mM NaCl, 5 mM KCl, 2 mM MgCl2, 2 mM CaCl2 and 50 mM Tris-Cl, pH 7.4 @4°C). After centrifuging at 20,000x g for 15 minutes, the pellets were resuspended in 30 volumes of buffer. Homogenate (containing 125-150 µg protein) was added to triplicate tubes containing concentrations of test compound and [^3H]-CYT (1.25 nM) in a final volume of 500 µL. Samples were incubated for 60 minutes at 4°C, then rapidly filtered through Whatman GF/B filters presoaked in 0.5% polyethyleneimine using 3 x 4 mL of ice-cold buffer. The filters are counted in 4 mL of Ecolume® (ICN). […] Alternately, data were expressed as a percentage of the total specific binding.

[3] = displacement of [3H]-CYT (1.25 nM), crude synaptic membranes from whole rat brain, IC50 converted to Ki (Cheng and Prusoff), read-out: Binding
[4] = inhibition of the efflux elicited by 100 µM (S)-nicotine, single dose 1 µM
[5] = inhibition of the efflux elicited by 100 µM (S)-nicotine, single dose 10 µM

T1 sequence (P09483 31-630): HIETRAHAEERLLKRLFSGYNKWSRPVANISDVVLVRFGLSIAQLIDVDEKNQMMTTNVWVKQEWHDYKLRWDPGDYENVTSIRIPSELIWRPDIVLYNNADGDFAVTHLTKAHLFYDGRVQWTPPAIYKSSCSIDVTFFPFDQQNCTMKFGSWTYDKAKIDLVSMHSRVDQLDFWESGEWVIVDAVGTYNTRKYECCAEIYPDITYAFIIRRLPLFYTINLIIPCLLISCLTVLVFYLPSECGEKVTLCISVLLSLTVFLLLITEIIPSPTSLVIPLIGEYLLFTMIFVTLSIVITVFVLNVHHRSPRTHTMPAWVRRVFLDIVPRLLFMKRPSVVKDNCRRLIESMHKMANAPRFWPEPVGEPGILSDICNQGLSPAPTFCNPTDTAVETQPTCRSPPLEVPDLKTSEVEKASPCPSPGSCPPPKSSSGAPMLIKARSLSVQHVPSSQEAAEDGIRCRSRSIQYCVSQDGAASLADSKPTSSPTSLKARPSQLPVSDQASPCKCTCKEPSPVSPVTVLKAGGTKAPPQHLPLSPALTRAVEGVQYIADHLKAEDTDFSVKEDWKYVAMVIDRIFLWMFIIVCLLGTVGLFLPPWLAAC
T1 sequence (P12390 25-500): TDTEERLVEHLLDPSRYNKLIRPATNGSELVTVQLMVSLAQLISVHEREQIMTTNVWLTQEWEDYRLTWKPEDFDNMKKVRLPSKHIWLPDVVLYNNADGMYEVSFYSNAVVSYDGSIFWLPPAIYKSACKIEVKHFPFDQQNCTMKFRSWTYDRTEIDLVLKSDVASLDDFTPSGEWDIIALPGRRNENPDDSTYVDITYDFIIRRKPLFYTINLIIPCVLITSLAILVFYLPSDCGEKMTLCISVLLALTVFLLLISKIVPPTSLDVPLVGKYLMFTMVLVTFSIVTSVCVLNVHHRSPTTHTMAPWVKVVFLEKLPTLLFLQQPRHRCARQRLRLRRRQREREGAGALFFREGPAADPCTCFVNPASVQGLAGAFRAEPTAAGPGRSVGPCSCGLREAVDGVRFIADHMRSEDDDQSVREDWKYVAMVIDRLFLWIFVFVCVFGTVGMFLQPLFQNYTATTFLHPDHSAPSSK

| Compound | IMR-32 maximal response [1] [%] | EC50 [1] [nM] | Ki [2, 3] [nM] | % Inhibition @ 1 µM [1] [%] | % Inhibition @ 10 µM [1] [%] | Ki [2] [nM] | % Inhibition @ 1 µM [1, 4] [%] | % Inhibition @ 10 µM [1, 5] [%] |
| --- | --- | --- | --- | --- | --- | --- | --- | --- |
| Cc1ncc(OC[C@@H]2CCN2)cc1Br.Cl [Example 52, 5-bromo-6-methyl-3-(2-(S)-azetidinylmethoxy)pyridine hydrochloride] | 124 | 1600 | – | – | – | – | – | – |
| Cl.Clc1cc(OC[C@H]2CCCN2)cnc1Cl [Example 9, 5,6-Dichloro-3-(2-(R)-pyrrolidinylmethoxy)pyridine hydrochloride] | 67 | 1600 | 0.03 | – | – | – | – | – |
| NC(=O)c1cc(OC[C@@H]2CCN2)cnc1Cl [Example 51, hydrochloride] | 64 | 16000 | 0.19 | – | – | – | – | – |
| CN1CCC[C@H]1COc1cnc(Cl)c(Cl)c1.Cl [Example 12, 5,6-Dichloro-3-(1-methyl-2-(S)-pyrrolidinylmethoxy)pyridine hydrochloride] | 16 | – | 0.11 | 5 | 8 | – | – | – |
| Cl.N#Cc1cc(OC[C@@H]2CCN2)cnc1Cl [Example 49, 5-Cyano-6-chloro-3-(2-(S)-azetidinylmethoxy)pyridine hydrochloride] | 158 | 290 | 0.097 | – | – | – | – | – |
| Cl.Clc1cc(OC[C@@H]2CCCN2)cnc1Cl [Example 11, 5,6-Dichloro-3-(2-(S)-pyrrolidinylmethoxy)pyridine hydrochloride] | 93 | 600 | 0.029 | – | – | – | – | – |
| Cl.Clc1cc(OC[C@H]2CCN2)cnc1Cl [Example 17, 5,6-dichloro-3-(2-(R)-azetidinylmethoxy)pyridine hydrochloride] | 108 | 200 | – | – | – | 0.06 | – | – |
| CN1CCC[C@@H]1COc1cnc(Cl)c(Br)c1.Cl [Example 8, 5-bromo-6-chloro-3-(1-methyl-2-(R)-pyrrolidinylmethoxy)pyridine hydrochloride] | 10.6 | – | – | – | – | 13 | 28 | 60 |
| 5-Ethyl-6-chloro-3-(1-methyl-2-(S)-pyrrolidinylmethoxy)pyridine hydrochloride [Example 47] | 152 | 22000 | 0.065 | – | – | – | – | – |
| CN1CC[C@@H]1COc1cnc(Cl)c(Cl)c1.Cl [Example 18, 5,6-dichloro-3-(1-methyl-2-(R)-azetidinylmethoxy)pyridine hydrochloride] | 22.5 | – | 2.4 | 0 | 18 | – | – | – |
| CCc1cc(OC[C@H]2CCCN2)cnc1Cl.Cl [Example 48, 5-Ethyl-6-chloro-3-(2-(R)-pyrrolidinylmethoxy)pyridine hydrochloride] | 129 | 56000 | 0.027 | – | – | – | – | – |
| CN1CC[C@H]1COc1cnc(Cl)c(Cl)c1.Cl [Example 16, 5,6-dichloro-3-(1-methyl-2-(S)-azetidinylmethoxy)pyridine hydrochloride] | 37 | 500 | 0.7 | 35 | – | – | – | – |
| Cl.Cl.Clc1ncc(OC[C@H]2CCCN2)cc1Br [Example 7, 5-bromo-6-chloro-3-(2-(R)-pyrrolidinylmethoxy)pyridine dihydrochloride] | 70 | 4900 | – | – | – | 0.099 | – | – |
| CCc1cc(OC[C@@H]2CCCN2)cnc1Cl.Cl [Example 46, 5-Ethyl-6-chloro-3-(2-(S)-pyrrolidinylmethoxy)pyridine hydrochloride] | 11 | – | 0.6 | – | – | – | – | – |
| Cl.Clc1cc(OC[C@@H]2CCN2)cnc1Cl [Example 15, 5,6-dichloro-3-(2-(S)-azetidinylmethoxy)pyridine hydrochloride] | 152 | 300 | – | – | – | – | – | – |
| CN1CC[C@H]1COc1cnc(Cl)c(Br)c1.Cl [Example 3, 5-Bromo-6-chloro-3-(1-methyl-2-(S)-azetidinylmethoxy)pyridine hydrochloride] | – | – | 0.38 | 55 | – | – | – | – |
| CCc1cc(OC[C@@H]2CCN2)cnc1Cl.Cl [Example 45, 5-Ethyl-6-chloro-3-(2-(S)-azetidinylmethoxy)pyridine hydrochloride] | 137 | 400 | – | – | – | 0.04 | – | – |
| CN1CCC[C@@H]1COc1cnc(Cl)c(Cl)c1.Cl [Example 10, 5,6-Dichloro-3-(1-methyl-2-(R)-pyrrolidinylmethoxy)pyridine hydrochloride] | 3.3 | – | 20 | 18 | 90 | – | – | – |
| CN1CCC[C@H]1COc1cnc(Cl)c(Br)c1.Cl.Cl [Example 5, 5-Bromo-6-chloro-3-(1-methyl-2-(S)-pyrrolidinylmethoxy)pyridine dihydrochloride] | 12 | – | – | – | – | 0.35 | 12 | 22 |
| Cl.Clc1ncc(OC[C@@H]2CCN2)cc1Br [Example 2, 5-Bromo-6-chloro-3-(2-(S)-azetidinylmethoxy)pyridine hydrochloride] | 120 | 100 | – | – | – | – | – | – |
| CN1CC[C@H]1COc1cnc(Cl)c(C#N)c1.Cl [Example 50, 5-Cyano-6-chloro-3-(1-methyl-2-(S)-azetidinylmethoxy)pyridine hydrochloride] | 35 | 10000 | 0.88 | – | – | – | – | – |
